Here are results for three molecules from patent publication US20130202698A1 (NANJING SANHOME PHARMACEUTICAL CO., LTD., priority 2005, published 2013).

For series [1], the system named is motor balance and coordination. Particulars: both, mouse, in vivo, 3 mg/kg.
Method: Motor balance and coordination were tested using a modified beam walking method. Mice were put on a smooth beam tilted at an angle of 70 degree. Mice passed the test by standing on the beam for 0.5 minute without falling off. All the mice were pre-screened before the studies, and a total of 110 mice were selected by passing the beam test in 3 consecutive tries. The selected mice were divided into 11 groups with 10 mice in each group (half male and half female). At certain time points after drug administration, mice were tested on the beam for 3 consecutive times. A mouse was counted as failing to the test if it fell off the beam for 2 or more times.
The dose volume was 0.2 mL/10 gram and infusion rate was 0.2 mL/10 seconds. Chlorpromazine was used as the positive control.
Series [2] concerns spontaneous activities of mice. Particulars: both, mouse, in vivo, 3 mg/kg.
Method: Mice weighing 18-22 g, half male and half female, were placed in the laboratory 24 hours before the test to adapt to the environment. The room temperature was controlled at 24±2° C. Animals were fasted for 8 hours before testing, and then placed in a transparent cage. The number of spontaneous activities of mice was counted by an automatic device (model XZ-4 by Drug Research Institute of China Academy of Medical Sciences). Mice were pre-screened by counting their spontaneous activities for five minutes and unqualified mice were excluded. A total of 110 mice were selected and divided into 11 groups with 10 mice in each group.
Chlorpromazine (3 mg/kg) was used as the positive control. The dose volume was 0.2 mL/10 gram and infusion rate was 0.2 mL/10 seconds.
The next series concerns righting reflex. The series is described as follows: Hypnotic effect, loss of righting reflex. It is filed as in vivo. As to conditions: mice, positive control, 40 mg/kg (Table 9), 10 animals.
For series [3], the system named is Strychnine-induced convulsion. Put plainly: Anticonvulsant effects on Strychnine-induced convulsion in mice. Type of series: in vivo. As to conditions: 2 mg/kg, positive control, n=10. As to the method:
(§1) Mice are randomized into 4 treatment groups (n=10 with half male and half female): dextro- or levo-ornidazole (dosage 40, 80, 160 mg/kg), vehicle control group (15% propylene glycol in 0.9% sodium chloride, 20 mL/kg) and the positive control group. Animals are treated with known convulsion-inducing agents, followed by the drug or vehicle control given intravenously. The dose volume is 20 mL/kg with an infusion rate of 0.2 mL/10 seconds. The anticonvulsant effects are observed and recorded (see Tables 2-6).

The test system of series [4] is Remefline-induced convulsion. The series is described as follows: Anticonvulsant effects on Remefline-induced convulsion in mice. As to conditions: 2 mg/kg, positive control. Type of series: in vivo. The method, then:
In one experiment, the anticonvulsant effects of levo- and dextro-ornidazole against drug-induced convulsions in mice were compared. In four different animal convulsion models, mice were treated by four different seizure-inducing agents, including Remefline, Strychnine, isoniazid, thiosemicarbazide. Levo- or dextro-ornidazole was administered along with the seizure-inducing agents, and several outcomes were measured, including rate of convulsion, mortality rate, time to convulsion (latency), and time to death. Diazepam was used as a positive anticonvulsant control.
Mice are randomized into 4 treatment groups (n=10 with half male and half female): dextro- or levo-ornidazole (dosage 40, 80, 160 mg/kg), vehicle control group (15% propylene glycol in 0.9% sodium chloride, 20 mL/kg) and the positive control group. Animals are treated with known convulsion-inducing agents, followed by the drug or vehicle control given intravenously. The dose volume is 20 mL/kg with an infusion rate of 0.2 mL/10 seconds.

In series [5] the test system is isoniazid-induced convulsion. Put plainly: Anticonvulsant effects on isoniazid-induced convulsion in mice. It is filed as in vivo. Particulars: 2 mg/kg, positive control, Mean ± SD, n=10. The method, then: as §1
The subject of series [6] is thiosemicarbazide-induced convulsion. Put plainly: Anticonvulsant effects on thiosemicarbazide-induced convulsion in mice. Type of series: in vivo. As to conditions: 2 mg/kg, positive control, n=10. The method, then: as §1

Where two headings read alike, the source gives them in different places. Marks after values point to notes of the source that are not given here.

For `CN(C)CCCN1c2ccccc2Sc2ccc(Cl)cc21` [Chlorpromazine], the “Number of Animals Fall Off” value is on record as 10 in series [1] (0.5 h); 10 in series [1] (1 h); 10 in series [1] (2 h); 9 in series [1] (3 h); 5 in series [1] (4 h). The “Spontaneous Activities (per 5 min)” value in series [2] (0.5 h) was 5 ± 2 per 5 min; in series [2] (1 h) it was 6 ± 4 per 5 min; in series [2] (2 h) it was 13 ± 6 per 5 min; in series [2] (3 h) it was 21 ± 9 per 5 min; in series [2] (4 h), 35 ± 9 per 5 min.
Take `CCCC(C)C1(CC)C(=O)NC(=O)NC1=O` (stereo not shown) [Pentobarbital, Sodium pentobarbital]: in the series with righting reflex, the “Number of animals Loss of Righting Flex 30 min Post-dose” value is recorded as 10**.
In the case of `CN1C(=O)CN=C(c2ccccc2)c2cc(Cl)ccc21` [Diazepam], the “Mortality Rate” value in series [3] is on record as 0/10**; in series [4] (n=10, 2 mg/kg), 0/10**; in series [4] (n=10, listed as diazepam) it was 0/10; in series [6], 0/10**. Further, the “Rate of Convulsion” value in series [4] (n=10) is 0/10**; in series [6], 2/10**. Also, the “Convulsion Latency” value in series [5] is on record as 57.4 ± 9.7 min. Also, in series [5], the “Time to Death” value turned out to be 79.0 ± 12.9 min.
